# Assay results from paper PMC6853232, “Discovery and evaluation of novel synthetic 5-alkyl-4-oxo-4,5-dihydro-[1,2,4]triazolo[4,3-a]quinoxaline-1-carbox-amide derivatives as anti-inflammatory agents” (Journal of Enzyme Inhibition and Medicinal Chemistry, 2019).
# Marks after values point to notes of the source that are not given here.
# System: RAW264.7 cells
# Test: MTT assay for cell viability
# Assay type: cell-based, mouse
# Conditions: LPS 1 μg/mL
# Method: The RAW 264.7 mouse macrophage cell line was obtained from the China Cell Line Bank (Beijing, China). Cells were cultured in complete medium (DMEM supplemented with 10% heat-inactivated FBS, 3 mM glutamine and antibiotics (100 U/mL penicillin and 100 U/mL streptomycin)) at 37 °C in a humidified incubator containing 5% CO2 and 95% air. […]
# Cell viability studies induced by synthesised compounds were evaluated by 3-(4,5-dimethylthiazol-2-yl)-2,5-diphenyltetrazolium bromide (MTT) assay. RAW264.7 macrophages were seeded in 96-well plates at a density of 5 × 10^5 cells/mL in complete medium and incubated for 24 h (100 µL/well). Then the cells were treated with different concentrations of synthesised compounds for 24 h. 150 µL MTT (5 g/L in PBS) was added to each well and the cells were further incubated for 4 h. The supernatant was removed and the cells were lysed with 150 µL/well DMSO. The optical density was measured at 570 nm on a microplate reader (Thermo Scientific, MA, USA).
substance,measurement,value
"lipopolysaccharide [LPS, reference compound]",Cell viability (%),98.60 ± 2.12^a %
